Source: US5652237A, “2-substituted-4H-3, 1-benzoxazin-4-ones and benzthiazin-4-ones as inhibitors of complement C1r protease for the treatment of inflammatory processes” (Warner-Lambert Company, priority 1995, dated 1997)

Target: T1, human C1 r (Homo sapiens, UniProt P00736)
T1 construct: purchased Enzyme Research Labs (South Bend, Ind.)
T1 sequence (P00736 464-705 limits assumed): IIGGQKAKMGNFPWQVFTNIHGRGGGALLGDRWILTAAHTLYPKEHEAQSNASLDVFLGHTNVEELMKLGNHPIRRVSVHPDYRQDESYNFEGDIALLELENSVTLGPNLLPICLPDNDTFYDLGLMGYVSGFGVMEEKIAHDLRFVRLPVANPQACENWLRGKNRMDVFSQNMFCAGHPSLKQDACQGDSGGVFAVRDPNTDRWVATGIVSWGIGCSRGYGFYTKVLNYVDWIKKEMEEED
T1 sequence (P00736 18-463 partner limits assumed): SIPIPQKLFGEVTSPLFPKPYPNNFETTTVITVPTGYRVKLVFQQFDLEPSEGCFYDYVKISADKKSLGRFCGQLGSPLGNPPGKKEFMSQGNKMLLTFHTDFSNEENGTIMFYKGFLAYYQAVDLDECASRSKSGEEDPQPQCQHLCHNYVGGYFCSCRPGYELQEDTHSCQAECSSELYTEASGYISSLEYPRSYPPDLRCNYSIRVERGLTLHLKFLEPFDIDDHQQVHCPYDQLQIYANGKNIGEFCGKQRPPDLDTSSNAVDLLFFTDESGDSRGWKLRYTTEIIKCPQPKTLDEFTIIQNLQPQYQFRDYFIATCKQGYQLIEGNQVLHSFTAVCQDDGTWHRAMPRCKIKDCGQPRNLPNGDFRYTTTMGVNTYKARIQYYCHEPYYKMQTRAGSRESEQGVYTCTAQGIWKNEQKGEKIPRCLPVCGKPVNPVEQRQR
Assay: Assay of C1r Enzyme Activity (Assay 1), thioester substrate z-Gly-Arg-S-Bzl with DTNB
Assay type: biochemical
Details: Table 1 and text, pH 7.4-7.5, read-out: Inhibition of Clr Assay 1 (IC50)
Experimental: Assay of C1 r Enzyme Activity Purified human C1 r was obtained commercially from Enzyme Research Labs (South Bend, Ind.). The enzyme is stored frozen at -70° C. at a stock concentration of about 1 mg/mL of protein until the enzyme is needed. […] The thioester substrate, z-Gly-Arg-S-Bzl, for C1 r assays (McRae, et al., 1981) is obtained commercially from Enzyme System Products (Livermore, Calif.). All other reagents were obtained from Sigma Chemical Co. (St. Louis, Mo.). The procedure for assaying the inhibition of C1 r enzyme activity is as follows. A 5 mM stock solution of z-Gly-Arg-S-Bzl is made in dimethylsulfoxide (DMSO) and stored at room temperature until needed. The stock substrate solution is diluted 3 parts stock substrate solution to 7 parts distilled water to make a 1.5 mM working substrate solution. The working substrate solution is made just before it is needed. A fresh solution of 20 μg/mL of C1 r enzyme is made in 10 mM Tris buffer, pH 7.4. The enzyme solution can be stored on ice for up to an hour. […] Compounds at concentrations ranging from 1 mM to 0.010 mM are dissolved in DMSO and a 10 μL aliquot of each concentration is deposited in a well of a 96-well microtiter plate. Fifty microliters of the working substrate solution and 50 μL of DTNB solution are then dispensed in the wells of the microtiter plate, followed by the immediate addition of 50 μL of the C1 r enzyme solution to start the assay. The assay produces a yellow color that is read in the kinetic mode using a Molecular Devices Thermomax microplate reader set to a wavelength of 405 nm. The assay background is followed by monitoring wells that contain substrate, buffer, and DTNB solutions but no enzyme. All assays are performed in triplicate at each inhibitor concentration tested. Values for each inhibitor concentration are reported as optical density (OD)/minute.

IC50	SMILES
36 µM	CN(C(=O)c1ccccc1I)c1nc2cccc(Cl)c2c(=O)o1 [Example 54, N-(5-Chloro-4-oxo-4H-benzo[d][1,3]oxazin-2-yl)-2-iodo-N-methyl-benzamide]
1.4 µM	Cc1ccc2c(=O)oc(Nc3ccccc3Cl)nc2c1 [Example 45, 2-(2-Chloro-phenylamino)-7-methyl-benzo[d][1,3]oxazin-4-one]
8 µM	CN(C(=O)c1c(Cl)cccc1Cl)c1nc2ccccc2c(=O)o1 [Example 13, 2,6-Dichloro-N-methyl-N-(4-oxo-4H-benzo[d][1,3]oxazin-2-yl)-benzamide]
4 µM	O=c1oc(Nc2ccccc2OC(F)(F)F)nc2ccccc12 [Example 9, 2-(2-Trifluoromethoxy-phenylamino)-benzo[d][1,3]oxazin-4-one]
0.75 µM	O=c1oc(Nc2ccccc2I)nc2cc([N+](=O)[O-])ccc12 [Example 30, 2-(2-Iodo-phenylamino)-7-nitro-benzo[d][1,3]oxazin-4-one]
5.1 µM	O=c1oc(Nc2ccccc2Br)nc2ccccc12 [Example 3, 2-(2-Bromo-phenylamino)-benzo[d][1,3]oxazin-4-one]
0.5 µM	O=c1oc(Nc2ccccc2I)nc2cc(Cl)c(Cl)cc12 [Example 29, 6,7-Dichloro-2-(2-iodo-phenylamino)-benzo[d][1,3]oxazin-4-one]
10.1 µM	CN(C(=O)c1ccco1)c1nc2ccccc2c(=O)o1 [Example 61, Furan-2-carboxylic acid methyl-(4-oxo-4H-benzo[d][1,3]oxazin-2-yl)-amide]
40 µM	CN(C(=O)c1cccnc1)c1nc2ccccc2c(=O)o1 [Example 62, N-Methyl-N-(4-oxo-4H-benzo[d][1,3]oxazin-2-yl)nicotinamide]
60 µM	CN(C(=O)c1ccccc1F)c1nc2ccccc2c(=O)o1 [Example 33, 2-Fluoro-N-methyl-N-(4-oxo-4H-benzo[d][1,3]oxazin-2-yl)-benzamide]
8.3 µM	CCN(C(=O)c1ccccc1I)c1nc2ccccc2c(=O)o1 [Example 18, N-Ethyl-2-iodo-N-(4-oxo-4H-benzo[d][1,3]oxazin-2-yl)-benzamide]
> 66 µM	COc1ccccc1C(=O)N(C)c1nc2ccccc2c(=O)o1 [Example 35, 2-Methoxy-N-methyl-N-(4-oxo-4H-benzo[d][1,3]oxazin-2-yl)-benzamide]
1.4 µM	O=c1oc(Nc2ccccc2Cl)nc2cc([N+](=O)[O-])ccc12 [Example 52, 2-(2-Chloro-phenylamino)-7-nitro-benzo[d][1,3]oxazin-4-one]
6 µM	CN(C(=O)c1ccsc1)c1nc2ccccc2c(=O)o1 [Example 32, Thiophene-3-carboxylic acid methyl-(4-oxo-4H-benzo[d][1,3]oxazin-2-yl)-amide]
1.5 µM	CN(C(=O)c1ccccc1C(F)(F)F)c1nc2ccccc2c(=O)o1 [Example 16, N-Methyl-N-(4-oxo-4H-benzo[d][1,3]oxazin-2-yl)-2-trifluoromethyl-benzamide]
> 66 µM	CCN(c1nc2ccccc2c(=O)o1)c1ccccc1I [Example 11, 2-[Ethyl-(2-iodo-phenyl)-amino]-benzo[d][1,3]oxazin-4-one]
1.3 µM	Cc1ccc2nc(N(C)C(=O)c3ccccc3I)oc(=O)c2c1 [Example 40, 2-Iodo-N-methyl-N-(6-methyl-4-oxo-4H-benzo[d][1,3]oxazin-2-yl)-benzamide]
1.4 µM	O=c1oc(Nc2ccccc2I)nc2cc3ccccc3cc12 [Example 20, 2-(2-Iodo-phenylamino)-naphtho[2,3-d][1,3]oxazin-4-one]
7 µM	O=c1oc(Nc2ccccc2I)nc2cc(F)c(F)cc12 [Example 46, 6,7-Difluoro-2-(2-iodo-phenylamino)-benzo[d][1,3]oxazin-4-one]
> 66 µM	CN(C(=O)c1ccccc1I)c1nc2ccc(Cl)cc2c(=O)o1 [Example 41, N-(6-Chloro-4-oxo-4H-benzo[d][1,3]oxazin-2-yl)-2-iodo-N-methyl-benzamide]
0.8 µM	Cc1ccc2c(=O)oc(Nc3ccccc3I)nc2c1 [Example 28, 2-(2-Iodo-phenylamino)-7-methyl-benzo[d][1,3]oxazin-4-one]

IC50	SMILES
8 µM	CN(C(=O)c1ccccc1I)c1nc2cc(Cl)c(Cl)cc2c(=O)o1 [Example 56, N-(6,7-Dichloro-4-oxo-4H-benzo[d][1,3]oxazin-2-yl)-2-iodo-N-methyl-benzamide]
> 66 µM	Cc1cccc2nc(Nc3ccccc3I)oc(=O)c12 [Example 26, 2-(2-Iodo-phenylamino)-5-methyl-benzo[d][1,3]oxazin-4-one]
2.8 µM	Cc1ccc2c(=O)oc(N(C)C(=O)c3ccccc3I)nc2c1 [Example 55, 2-Iodo-N-methyl-N-(7-methyl-4-oxo-4H-benzo[d][1,3]oxazin-2-yl)-benzamide]
> 66 µM	COc1ccc2c(=O)oc(N(C)C(=O)c3ccccc3I)nc2c1 [Example 44, 2-Iodo-N-(7-methoxy-4-oxo-4H-benzo[d][1,3]oxazin-2-yl)-N-methyl-benzamide]
18 µM	CN(C(=O)c1ccccc1I)c1nc2cc(Cl)ccc2c(=O)o1 [Example 42, N-(7-Chloro-4-oxo-4H-benzo[d][1,3]oxazin-2-yl)-2-iodo-N-methyl-benzamide]
0.4 µM	O=c1oc(Nc2c(Cl)cccc2Cl)nc2cc(Cl)ccc12 [Example 50, 7-Chloro-2-(2,6-dichloro-phenylamino)-benzo[d][1,3]oxazin-4-one]
> 66 µM	CN(C)c1ccc2c(=O)oc(Nc3ccccc3I)nc2c1 [Example 19, 7-Dimethylamino-2-(2-iodo-phenylamino)-benzo[d][1,3]oxazin-4-one]
0.4 µM	O=c1oc(Nc2ccccc2I)nc2cc(C(F)(F)F)ccc12 [Example 31, 2-(2-Iodo-phenylamino)-7-trifluoromethylbenzo[d][1,3]oxazin-4-one]
> 67 µM	O=c1oc(Nc2ccc(I)cc2)nc2ccccc12 [Example 6, 2-(4-Iodo-phenylamino)-benzo[d][1,3]oxazin-4-one]
3.5 µM	O=c1oc(Nc2ccccc2I)nc2ccccc12 [Example 4, 2-(2-Iodo-phenylamino)-benzo[d][1,3]oxazin-4-one]
19 µM	COc1ccc(C(=O)N(C)c2nc3ccccc3c(=O)o2)cc1 [Example 59, 4-Methoxy-N-methyl-N-(4-oxo-4H-benzo[d][1,3]oxazin-2-yl)-benzamide]
> 66 µM	COc1ccc2c(=O)oc(Nc3ccccc3I)nc2c1 [Example 25, 2-(2-Iodo-phenylamino)-7-methoxy-benzo[d][1,3]oxazin-4-one]
31 µM	Cc1ccccc1Nc1nc2ccccc2c(=O)o1 [Example 51, 2-o-Tolylamino-benzo[d][1,3]oxazin-4-one]
4 µM	CN(C(=O)c1ccccc1Br)c1nc2ccccc2c(=O)o1 [Example 14, 2-Bromo-N-methyl-N-(4-oxo-4H-benzo[d][1,3]oxazin-2-yl)-benzamide]
6.5 µM	O=c1oc(Nc2ccccc2Cl)nc2ccccc12 [Example 2, 2-(2-Chloro-phenylamino)-benzo[d][1,3]oxazin-4-one]
1.4 µM	CN(c1nc2ccccc2c(=O)o1)c1ccccc1I [Example 10, 2-[Methyl-(2-iodo-phenyl)-amino]benzo[d][1,3]oxazin-4-one]
14.5 µM	O=c1oc(Nc2ccccc2I)nc2cccc(Cl)c12 [Example 21, 5-Chloro-2-(2-iodo-phenylamino)-benzo[d][1,3]oxazin-4-one]
33 µM	CN(C(=O)c1ccc(I)cc1)c1nc2ccccc2c(=O)o1 [Example 38, 4-Iodo-N-methyl-N-(4-oxo-4H-benzo[d][1,3]oxazin-2-yl)-benzamide]
12 µM	N=C(N)c1ccc2cc(OC(=O)c3ccc(N=C(N)N)cc3)ccc2c1 [FUT-175, reference compound]
20 µM	CN(C(=O)c1cccc(I)c1)c1nc2ccccc2c(=O)o1 [Example 37, 3-Iodo-N-methyl-N-(4-oxo-4H-benzo[d][1,3]oxazin-2-yl)-benzamide]
